Data published in US20090215822A1, “Substituted Oxadiazole Derivatives as Positive Allosteric Modulators of Metabotropic Glutamate Receptors” (NIKEM RESEARCH SRL, priority 2005, published 2009).

Assays:
Male C57BL6/j mice = assay: Amphetamine model of schizophrenia (amphetamine-induced locomotor activity); format: in vivo; conditions: 30 mg/kg ip, 120 min before amphetamine 3.0 mg/kg s.c., first 30 minutes of a 60 minute session
Excerpt: Amphetamine-induced increases in locomotor ambulation are well known and are widely used as a model of the positive symptoms of schizophrenia. This model is based on evidence that amphetamine increases motor behaviors and can induce a psychotic state in humans (Yui et al. (2000) Ann. N.Y. Acad. Sci. 914:1-12). Further, it is well known that amphetamine-induced increases in locomotor activity are blocked by antipsychotics drugs that are effective in the treatment of schizophrenia (Arnt (1995) Eur. J. Pharmacol. 283:55-62).
Subjects: The present studies were performed in accordance with the animal care and use policies of Addex Pharmaceuticals and the laws and directives of Switzerland governing the care and use of animals. Male C57BL6/j mice (20-30 g) 7 weeks of age at the time of delivery were group housed in a temperature and humidity controlled facility on a 12 hour light/dark cycle for at least 7 days before use. Mice had access to food and water ad libitum except during locomotor activity experiments.
Assessment of locomotor (ambulatory) activity: The effects of compounds on amphetamine-induced locomotor activation in mice were tested. […] Locomotor activity (ambulations) was monitored by a videotracking system (VideoTrack, Viewpoint, Champagne au Mont d'Or, France) that recorded the ambulatory movements of mice. […] On test days, test compounds (10, 30, 50 or 100 mg/kg i.p. (intraperitoneal)) or vehicle were administered 120 minutes before amphetamine (3.0 mg/kg s.c.) or saline injection: Mice were placed into the locomotor boxes immediately after amphetamine or saline vehicle injection and their locomotor activity, defined as the distance traveled in centimeters (cm), was measured for 60 minutes.
Compound administration: The test compound was dissolved in a 5% DMSO/20% Tween 80/75% saline vehicle and administered in a volume of 10 ml/kg. […] D-amphetamine sulfate (Amino A G, Neuenhof, Switzerland) was dissolved in saline and administered at a dose of 3.0 mg/kg s.c. (expressed as the base) in a volume of 10 ml/kg. […]

mGluR5 = biological target: T1, mGluR5 (Rattus norvegicus, UniProt P31424); assay: mGluR5 binding assay ([3H]-MPEP, rat brain membranes); conditions: 3 nM [3H]-MPEP, rat cortical membranes, 1 h at 4° C.; read-out: IC50, inhibition of [3H]-MPEP binding
T1 construct: positive allosteric modulators of mGluR5 receptors in native preparations; endogenous in cells; host or cells: primary cortical astrocytes from Sprague-Dawley rat embryos (E16-19)
T1 sequence (P31424 21-1203): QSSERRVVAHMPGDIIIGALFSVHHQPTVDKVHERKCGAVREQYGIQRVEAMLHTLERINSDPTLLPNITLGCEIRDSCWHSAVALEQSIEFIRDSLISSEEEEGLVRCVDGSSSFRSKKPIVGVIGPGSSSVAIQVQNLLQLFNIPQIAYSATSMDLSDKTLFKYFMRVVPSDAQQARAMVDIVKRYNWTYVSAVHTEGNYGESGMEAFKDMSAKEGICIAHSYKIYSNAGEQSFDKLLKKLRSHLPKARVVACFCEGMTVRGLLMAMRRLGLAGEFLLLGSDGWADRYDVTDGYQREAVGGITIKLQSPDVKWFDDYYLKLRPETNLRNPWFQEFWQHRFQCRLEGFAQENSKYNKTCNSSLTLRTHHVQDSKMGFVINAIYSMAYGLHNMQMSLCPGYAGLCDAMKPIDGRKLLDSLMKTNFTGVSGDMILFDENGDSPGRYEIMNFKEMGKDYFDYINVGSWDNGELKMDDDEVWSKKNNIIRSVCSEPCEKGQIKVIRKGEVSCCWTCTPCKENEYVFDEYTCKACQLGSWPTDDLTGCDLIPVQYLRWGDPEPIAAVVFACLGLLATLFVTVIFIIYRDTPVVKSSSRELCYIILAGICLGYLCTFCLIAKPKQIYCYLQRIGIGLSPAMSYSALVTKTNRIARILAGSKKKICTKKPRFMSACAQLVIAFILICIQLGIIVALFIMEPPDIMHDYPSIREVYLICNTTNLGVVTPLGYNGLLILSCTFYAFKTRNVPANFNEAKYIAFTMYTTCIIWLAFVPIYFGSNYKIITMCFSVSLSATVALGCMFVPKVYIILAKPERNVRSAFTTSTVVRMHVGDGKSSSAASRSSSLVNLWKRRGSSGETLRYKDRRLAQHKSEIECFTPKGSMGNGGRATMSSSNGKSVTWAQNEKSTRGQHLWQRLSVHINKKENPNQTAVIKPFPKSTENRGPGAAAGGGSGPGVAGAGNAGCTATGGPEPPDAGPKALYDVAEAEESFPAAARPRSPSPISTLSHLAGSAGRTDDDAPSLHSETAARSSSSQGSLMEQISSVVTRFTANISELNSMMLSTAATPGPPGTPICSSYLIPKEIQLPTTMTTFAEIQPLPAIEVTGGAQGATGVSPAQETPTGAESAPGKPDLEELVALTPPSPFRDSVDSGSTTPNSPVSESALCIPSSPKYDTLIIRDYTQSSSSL
Excerpt: Activity of compounds of the invention was examined following a radioligand binding technique using whole rat brain and tritiated 2-methyl-6-(phenylethynyl)-pyridine ([^3H]-MPEP) as a ligand following similar methods than those described in Gasparini et al. (2002) Bioorg. Med. Chem. Lett. 12:407-409 and in Anderson et al. (2002) J. Pharmacol. Exp. Ther. 303 (3) 1044-1051.
Cortices were dissected out from brains of 200-300 g Sprague-Dawley rats (Charles River Laboratories, L'Arbresle, France). Tissues were homogenized in 10 volumes (vol/wt) of ice-cold 50 mM Hepes-NaOH (pH 7.4) using a Polytron disrupter (Kinematica A G, Luzern, Switzerland) and centrifuged for 30 min at 40,000 g. (4° C.). […] Protein concentration was determined by the Bradford method (Bio-Rad protein assay, Reinach, Switzerland) with bovine serum albumin as standard.
Membranes were thawed and resuspended in binding buffer containing 20 mM HEPES-NaOH, 3 mM MgCl2, 3 mM CaCl2, 100 mM NaCl, pH 7.4. […] Radioactivity was determined by liquid scintillation spectrometry using a 96-well plate reader (TopCount, Perkin-Elmer, Downers Grove, USA).
The inhibition curves were generated using the Prism GraphPad program (Graph Pad Software Inc, San Diego, USA). […] The mean of IC50 obtained from at least three independent experiments of selected molecules performed in duplicate were calculated.

rat mGluR5 receptor = biological target: T2, rat mGluR5 receptor (Rattus norvegicus, UniProt P31424); assay: mGluR5 assay on HEK-expressing rat mGluR5 (fluorescent cell based Ca2+ mobilization assay); conditions: HEK-293 cells stably expressing rat mGluR5; no co-addition of glutamate; mean of at least three independent experiments in duplicate; read-out: Ca++ Flux (mean EC50)
T2 construct: expressed in transfected cells
T2 sequence (P31424 21-1171 isoform P31424-2 limits assumed): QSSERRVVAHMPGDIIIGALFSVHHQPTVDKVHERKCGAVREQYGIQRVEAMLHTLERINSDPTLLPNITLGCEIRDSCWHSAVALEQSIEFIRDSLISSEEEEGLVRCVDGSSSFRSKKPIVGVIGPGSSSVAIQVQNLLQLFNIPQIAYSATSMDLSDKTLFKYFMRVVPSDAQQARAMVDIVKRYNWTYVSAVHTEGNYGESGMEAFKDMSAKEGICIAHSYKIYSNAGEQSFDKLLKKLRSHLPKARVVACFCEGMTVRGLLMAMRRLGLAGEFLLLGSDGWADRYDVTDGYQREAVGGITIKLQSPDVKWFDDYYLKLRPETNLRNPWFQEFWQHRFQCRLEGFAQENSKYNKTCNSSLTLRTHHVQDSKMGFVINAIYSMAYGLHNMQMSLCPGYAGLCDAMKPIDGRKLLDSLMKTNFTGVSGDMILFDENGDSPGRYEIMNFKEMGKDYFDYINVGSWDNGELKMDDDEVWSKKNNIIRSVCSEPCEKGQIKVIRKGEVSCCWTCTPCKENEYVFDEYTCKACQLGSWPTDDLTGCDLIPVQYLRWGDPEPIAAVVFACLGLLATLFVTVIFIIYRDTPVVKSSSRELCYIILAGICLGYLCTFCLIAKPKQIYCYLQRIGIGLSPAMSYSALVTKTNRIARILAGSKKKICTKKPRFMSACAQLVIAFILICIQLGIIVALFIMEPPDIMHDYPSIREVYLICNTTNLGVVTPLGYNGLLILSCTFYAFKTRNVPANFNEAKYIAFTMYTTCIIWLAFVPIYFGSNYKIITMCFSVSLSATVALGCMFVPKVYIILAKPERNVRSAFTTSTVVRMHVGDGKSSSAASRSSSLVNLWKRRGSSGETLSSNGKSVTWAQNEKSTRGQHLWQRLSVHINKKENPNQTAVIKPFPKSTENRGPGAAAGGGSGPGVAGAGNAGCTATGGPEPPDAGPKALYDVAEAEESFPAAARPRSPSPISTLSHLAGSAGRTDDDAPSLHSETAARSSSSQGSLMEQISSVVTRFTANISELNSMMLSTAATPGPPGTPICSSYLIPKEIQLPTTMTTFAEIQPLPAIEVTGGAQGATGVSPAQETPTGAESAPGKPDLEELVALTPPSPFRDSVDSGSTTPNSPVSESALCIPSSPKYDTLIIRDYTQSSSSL
Procedure: Positive functional expression of HEK-293 cells stably expressing rat mGluR5 receptor was determined by measuring intracellular Ca^2+ changes using a Fluorometric Imaging Plate Reader (FLIPR, Molecular Devices, Sunnyvale, Calif.) in response to glutamate or selective known mGluR5 agonists and antagonists. Rat mGluR5 RT-PCR products in HEK-293 cells were sequenced and found 100% identical to rat mGluR5 Genbank reference sequence (NM_017012). HEK-293 cells expressing rmGluR5 were maintained in media containing DMEM, dialyzed Fetal Bovine Serum (10%), Glutamax™ (2 mM), Penicillin (100 units/ml), Streptomycin (100 μg/ml), Geneticin (100 μg/ml) and Hygromycin-B (40 μg/ml) at 37° C./5% CO2.
After one day of incubation, cells were washed with assay buffer containing: 142 mM NaCl, 6 mM KCl, 1 mM Mg2SO4, 1 mM CaCl2, 20 mM HEPES, 1 g/L glucose, 0.125 mM sulfinpyrazone, pH 7.4. After 60 min of loading with 4 uM Fluo-4 (TefLabs, Austin, Tex.), the cells were washed three times with 50 μl of PBS Buffer and resuspended in […] of assay Buffer. The plates were then transferred to a Fluorometric Imaging Plate Reader (FLIPR, Molecular Devices, Sunnyvale, Calif.) for the assessment of intracellular calcium flux. After monitoring the baseline fluorescence for 10 seconds, increasing concentrations of representative compound (from 0.01 to 60 μM) of the present invention diluted in Assay Buffer (15 μl of 4× dilutions) was added to the cell. The final DMSO concentration in the assay was 0.3%. In each experiment, fluorescence was then monitored as a function of time for 3 minutes and the data analyzed using Microsoft Excel and GraphPad Prism. Each data point was also measured two times.
Under these experimental conditions, this HEK-rat mGluR5 cell line is able to directly detect positive allosteric modulators without the need of co-addition of glutamate or mGluR5 agonist.
The concentration-response curves of representative compounds of the present invention were generated using the Prism GraphPad software (Graph Pad Inc, San Diego, USA). The curves were fitted to a four-parameter logistic equation:
(Y=Bottom+(Top-Bottom)/(1+10̂((Log EC50−X)*Hill Slope)
allowing determination of EC50 values.
The Table 1 below represents the mean EC50 obtained from at least three independent experiments of selected molecules performed in duplicate.

melting point: 157 to 160 °C
IC50 (mGluR5): < 30 µM
EC50 (rat mGluR5 receptor): < 1 µM
Compound: O=C(c1ccc(F)cc1)N1CCC[C@H](c2noc(-c3ccc(F)cc3)n2)C1 [Example 1, (4-Fluoro-phenyl)-{(S)-3-[5-(4-fluoro-phenyl)-[1,2,4]oxadiazol-3-yl]-piperidin-1-yl}-methanone]
increase in locomotor activity induced by amphetamine (Male C57BL6/j mice): significantly attenuated
increase in locomotor activity induced by amphetamine (Male C57BL6/j mice; listed as compound # 1): significantly attenuated
increase in locomotor activity induced by amphetamine (Male C57BL6/j mice; listed as example #1): significantly attenuate
